The test system of this test is female NMRI mice. Description: Anorectic action: cumulative milk consumption after 24 h removal of feed. In kind it is in vivo. The note with it: 30 mg/kg i.p. As for the experimental part:
The anorectic action was tested on female NMRI mice. After removal of feed for 24 hours, the preparation to be tested was administered intraperitoneally (i.p.) or by gavage (po). The animals were housed singly and, with free access to drinking water, they were offered evaporated milk 30 minutes after administration of the preparation. The consumption of evaporated milk was determined and the general behavior of the animals was monitored every half an hour for 7 hours. The measured milk consumption was compared to that of vehicle-treated control animals.

On to `CC1(O)c2ccc(Cl)cc2CC1(F)S(C)(=O)=O` (centres unmarked) [Example 1, 5-Chloro-2-fluoro-2-methanesulfonyl-1-methyl-indan-1-ol], for which the “Reduction in cumulative milk consumption as % of the control” value (compared with control animals) was determined as 25%. Also, the “cumulative milk consumption by treated animals” value (feed removed for 24 h, evaporated milk offered 30 min after administration, monitored for 7 hours) was 4/2.88 ml.

These data come from patent US6812256B2, “Polysubstituted indan-1-ol systems for the prophylaxis or treatment of obesity” (Aventis Pharma Deutschland GmbH, priority 2001, dated 2004).
